Data: patent US5026711A, “4-amino quinolines and naphthyridines and their use as medicines” (priority 1988, dated 1991)
pIC50: −log10 of the molar value. Where two headings read alike, the source gives them in different places.

Tests used:
[1] = target: T1, benzodiazepine receptors of the peripheral type (Felis catus, UniProt A0ABI7ZQW3); assay: inhibition of specific binding of [3H] PK11195 to peripheral type benzodiazepine receptors, membrane proteins of cat brain
T1 sequence (A0ABI7ZQW3 15-183): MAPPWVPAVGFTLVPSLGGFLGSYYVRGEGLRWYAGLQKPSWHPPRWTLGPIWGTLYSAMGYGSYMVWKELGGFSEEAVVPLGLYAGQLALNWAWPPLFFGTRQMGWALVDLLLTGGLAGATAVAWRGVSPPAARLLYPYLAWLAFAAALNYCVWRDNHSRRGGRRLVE
Description: The method is similar to that described by J. Benavides et al. in Brain Res. Bull. 13 p. 69-77 (1984) and references cited therein.
Suspensions of membrane proteins of cat brain were prepared as described by J. Benavides.
The assays of inhibition of the binding of [^3 H]
Non specific binding was defined as the amount of [^3 H]

[2] = system: receptors of the peripheral type; assay: in vivo inhibition of [3H] PK11195 binding to peripheral type receptors in organs of the mouse
Description: The assays were carried out in the mouse by using the binder [^3 H]
The products to be tested are administered orally in suspension in an aqueous solution of carboxymethylcellulose (1% wt/v) to groups of 4 mice 35 mn before the intravenous injection of [^3 H] […] 5 mn after the injection the animals are sacrificed by decapitation and the different organs are removed and ground in 10 ml Tris-HCl buffer (50 mM; pH=7.4) to give homogenates.
The control groups only received the carboxymethylcellulose solution and the injection of [^3 H]
A determination was made for each organ by means of scintigraphy of:
1--the amount of radioactive binder present in an organ by measuring the radioactivity of an aliquot of the homogenate.
2--the amount of radioactive binder bound to the membrane tissues of an organ by measuring the radioactivity bound on a fiber glass filter after filtration of another aliquot of the homogenate.
3--the amount of radioactive binder bound non-specifically to the membrane tissues by incubating a control homogenate with an excess of RO5-4864, a known binder, followed by binding of the membranes to a filter and measurement of the radioactivity remaining on the membranes.
The inhibition of specific binding, recorded as SB, is equal to the difference between the radioactivity measurements 2 and 3 divided by measurement 1.
The percentages of inhibition of the binding in different organs determined for compounds of the invention and the reference substances are shown in table VI; they are given by the formula: [formula]

[3] = system: central benzodiazepine receptors; assay: inhibition of specific binding of [3H] flunitrazepam to central benzodiazepine receptors, rat brain; conditions: 4° C., pH 7.4
Description: (b) determination of the concentration of the product under study inhibiting 50% of the specific binding of flunitrazepam to the central receptors.
The brains of rats were removed after decapitation and ground, then placed in suspension in an aqueous solution of sucrose (0.32M). The mixture is centrifuged and the pellet is resuspended to give a homogenous suspension in a TRIS-HCl buffered solution (50 mM; pH=7.4). Aliquots of this suspension are incubated at 4° C. after addition of [^3 H] flunitrazepam, alone or with increasing amounts of the compound to be tested.

[4] = oral acute toxicity in the mouse (LD50); type: in vivo; conditions: 500 mg/kg
Description: The compounds of Examples 3, 67, 90, 107 and 114 are atoxic at the dose of 500 mg/kg in the mouse.

[5] = [3H] PK11195 0.5 nM, cat brain membranes, 4° C., 2h30; read-out: IC50 (peripheral)

Structure (SMILES) | pIC50 [1, 5] | pIC50 [3] | other results
CCC(C)N(C)C(=O)c1cc2ccccc2c(-c2ccccc2Cl)n1 (stereo not shown) [PK11195, 1-(2-chlorophenyl) 3-(N-methyl N-methylpropyl) carbamoyl isoquinoline, reference compound] | 8.89 |  | % Inhibition, brain ([2]; 15 mg/kg oral): 71%; % Inhibition, heart ([2]; 15 mg/kg oral): 27%; % Inhibition, kidney ([2]; 15 mg/kg oral): 54%; % Inhibition, spleen ([2]; 15 mg/kg oral): 29%; % Inhibition, thymus ([2]; 15 mg/kg oral): 30%
CN1C(=O)CN=C(c2ccc(Cl)cc2)c2cc(Cl)ccc21 [R05-4864, 7-chloro 1,3-dihydro 1-methyl 5-(4-chlorophenyl) 1,4-2H-benzodiazepine 2-one, reference compound] |  |  | IC50 (central) [3]: inactive; pIC50 ([1]; read-out: IC50 (peripheral); [3H] PK11195 0.5 nM, cat brain membranes, 4° C., 2h30): 7.36; % Inhibition, brain ([2]; 15 mg/kg oral): 74%; % Inhibition, heart ([2]; 15 mg/kg oral): 27%; % Inhibition, kidney ([2]; 15 mg/kg oral): 73%; % Inhibition, spleen ([2]; 15 mg/kg oral): 11%; % Inhibition, thymus ([2]; 15 mg/kg oral): 28%
CCCN(CCC)C(=O)C(C)Nc1c(C(=O)OCC)cnc2ccc(Cl)cc12 (stereo not shown) [SR 26058] |  |  | atoxic at the dose of 500 mg/kg [4]: atoxic
CN(C(=O)CNc1c(C(=O)c2ccccc2)cnc2cccnc12)c1ccc(Cl)cc1 [compound 26276] | 9.52 | 4.87 | % Inhibition, brain ([2]; 8 mg/kg oral): 78%; % Inhibition, heart ([2]; 8 mg/kg oral): 30%; % Inhibition, kidney ([2]; 8 mg/kg oral): 69%; % Inhibition, spleen ([2]; 8 mg/kg oral): 37%; % Inhibition, thymus ([2]; 8 mg/kg oral): 34%
CCCN(CCC)C(=O)C(C)Nc1c(C(=O)OCC)cnc2cc(Cl)ccc12 (stereo not shown) [compound 26310] | 9.00 | < 4.70 | % Inhibition, brain ([2]; 25 mg/kg oral): 76%; % Inhibition, heart ([2]; 25 mg/kg oral): 39%; % Inhibition, kidney ([2]; 25 mg/kg oral): 32%; % Inhibition, spleen ([2]; 25 mg/kg oral): 52%; % Inhibition, thymus ([2]; 25 mg/kg oral): 31%
CN(C(=O)CNc1c(C(=O)c2ccccc2)cnc2cc(Cl)ccc12)c1ccc(Cl)cc1 [compound 26412] | 9.40 | < 5.00 | % Inhibition, brain ([2]; 25 mg/kg oral): 79%; % Inhibition, spleen ([2]; 25 mg/kg oral): 62%
CN(C(=O)CNc1c(C(=O)c2ccccc2)cnc2ccc(Cl)cc12)c1ccc(Cl)cc1 [compound 26620] | 8.55 | < 5.00 | 
CCCN(CCC)C(=O)C(C)Nc1c(C(=O)O)cnc2cc(Cl)ccc12 (stereo not shown) [compound 26632] | 7.00 | < 4.70 | 
CN(C(=O)CNc1c(C(=O)c2ccccc2)cnc2nc(Cl)ccc12)c1ccccc1Cl [compound 26640] | 7.34 | 5.45 | 
CCCN(CCC)C(=O)C(C)Nc1c(C(=O)OCC)cnc2cc(OC)c(OC)cc12 (stereo not shown) [compound 26641] | 6.45 | < 4.70 | 
CN(C(=O)CNc1c(C(=O)c2cccnc2)cnc2cc(Cl)ccc12)c1ccc(Cl)cc1 [compound 26643] | 8.92 | < 5.00 | 
CN(C(=O)CNc1c(C(=O)c2ccccc2)cnc2cccnc12)c1ccccc1Cl [compound 26651] | 9.03 | 5.07 | 
CN(C(=O)CNc1c(C(=O)c2ccccc2)cnc2cc(Cl)ccc12)c1ccc(Cl)c(Cl)c1 [compound 26676] | 8.96 | < 5.00 | 
COc1ccc2ncc(C(=O)c3ccccc3)c(NCC(=O)N(C)c3ccc(Cl)cc3)c2n1 [compound 26698] | 8.71 | < 5.00 | 
CN(C(=O)CNc1c(C(=O)c2ccccc2)cnc2cc(F)ccc12)c1ccc(Cl)cc1 [compound 26706] | 8.40 | < 5.00 | 
CN(C(=O)CNc1c(C(=O)c2ccccc2)cnc2cccnc12)c1ccc(Cl)c(Cl)c1 [compound 26708] | 8.55 | < 5.00 | 
CN(CC(=O)N(C)c1ccc(Cl)cc1)c1c(C(=O)c2ccccc2)cnc2cccnc12 [compound 26710] | 8.49 | < 5.00 | 
CN(C(=O)CCNc1c(C(=O)c2ccccc2)cnc2cccnc12)c1ccc(Cl)cc1 [compound 26731] | 8.56 | < 5.00 | 
CN(C(=O)CNc1c(C(=O)c2ccccc2)cnc2cc(Cl)ccc12)c1ccc(C(F)(F)F)cc1 [compound 26778] | 7.57 | < 5.00 | 
CN(C(=O)CNc1c(C(=O)c2ccccc2)cnc2cc(C(F)(F)F)ccc12)c1ccc(Cl)cc1 [compound 26794] | 7.96 | < 5.00 | 

Structure (SMILES) | pIC50 [1, 5] | pIC50 [3] | other results
CN(C(=O)CNc1c(C(=O)c2ccccc2)cnc2cccnc12)c1ccccc1 [compound 26803] | 8.15 | 5.27 | 
CN(C(=O)CNc1c(C(=O)c2ccccc2)cnc2cc(Cl)cnc12)c1ccc(Cl)cc1 [compound 26830] | 9.89 | < 5.00 | % Inhibition, brain ([2]; 25 mg/kg oral): 64%; % Inhibition, spleen ([2]; 25 mg/kg oral): 26%
CN(C(=O)CNc1c(C(=O)c2ccccc2)c[n+]([O-])c2cccnc12)c1ccc(Cl)cc1 [compound 26838] | 7.97 | 5.12 | 
CN(CC(=O)N(C)c1ccc(Cl)cc1)c1c(C(=O)c2ccccc2)cnc2cc(Cl)ccc12 [compound 26841] | 7.77 | < 5.00 | 
COc1ccc(N(C)C(=O)CNc2c(C(=O)c3ccccc3)cnc3cc(Cl)ccc23)cc1 [compound 26846] | 8.54 | < 5.00 | % Inhibition, brain ([2]; 25 mg/kg oral): 91%; % Inhibition, spleen ([2]; 25 mg/kg oral): 80%
CN(C(=O)CNc1c(C(=O)c2ccccc2)cnc2cccnc12)c1ccc(C(F)(F)F)cc1 [compound 26847] | 8.80 | < 5.00 | 
CCN(C(=O)CNc1c(C(=O)c2ccccc2)cnc2cccnc12)c1ccc(Cl)cc1 [compound 26858] | 9.11 | < 5.00 | % Inhibition, brain ([2]; 25 mg/kg oral): 95%; % Inhibition, spleen ([2]; 25 mg/kg oral): 84%
CCCN(CCC)C(=O)CC(C)Nc1c(C(=O)OCC)cnc2cc(Cl)cnc12 (stereo not shown) [compound 26869] | 6.76 | < 4.70 | 
CN(C(=O)CNc1c(C(=O)c2ccccc2)cnc2cc(Br)ccc12)c1ccc(Cl)cc1 [compound 26876] | 9.30 | < 5.00 | % Inhibition, brain ([2]; 25 mg/kg oral): 84%; % Inhibition, spleen ([2]; 25 mg/kg oral): 64%
CN(C(=O)CNc1c(C(=O)c2ccccc2)cnc2cc(Cl)c(Cl)nc12)c1ccc(Cl)cc1 [compound 26918] | 9.80 | 5.77 | 
CN(C(=O)CNc1c(C(=O)c2ccccc2)cnc2cnccc12)c1ccc(Cl)cc1 [compound 26919] | 7.28 | < 5.00 | 
CCCN(CCC)C(=O)C(C)Nc1c(C(=O)OCC)cnc2cc(F)ccc12 (stereo not shown) [compound 26920] | 7.74 | < 4.70 | 
CN(C(=O)CNc1c(C(=O)c2ccccc2)cnc2cccnc12)c1c(Cl)cccc1Cl [compound 26947] | 9.10 | 4.73 | 
Cc1ccc(N(C)C(=O)CNc2c(C(=O)c3ccccc3)cnc3cccnc23)cc1 [compound 26980] | 8.88 | 5.01 | 
COc1ccc(C(=O)c2cnc3cccnc3c2NCC(=O)N(C)c2ccc(Cl)cc2)cc1 [compound 27153] | 8.79 | 4.32 | % Inhibition, brain ([2]; 25 mg/kg oral): 87%; % Inhibition, spleen ([2]; 25 mg/kg oral): 52%
COc1ccc(N(C)C(=O)CNc2c(C(=O)c3ccccc3)cnc3cccnc23)cc1 [compound 27161] | 8.64 | < 5.00 | % Inhibition, brain ([2]; 25 mg/kg oral): 92%; % Inhibition, spleen ([2]; 25 mg/kg oral): 78%
C=CCN(C(=O)CNc1c(C(=O)c2ccccc2)cnc2cccnc12)c1ccc(Cl)cc1 [compound 27181] | 9.05 | < 5.00 | 
COc1ccc(N(C)C(=O)CNc2c(C(=O)c3ccccc3)cnc3cc(Br)ccc23)cc1 [compound 27195] | 9.00 | < 5.00 | 
COc1ccc(N(C)C(=O)CNc2c(C(=O)c3ccccc3)cnc3cc(Cl)ccc23)cc1 [compound 27196] | 9.10 | < 5.00 | 
CCOc1ccc(N(C)C(=O)CNc2c(C(=O)c3ccccc3)cnc3cc(Cl)ccc23)cc1 [compound 27271] | 7.17 | < 5.00 | 
